Results reported in patent US7919468B2, “Compounds useful as modulators of the proteasome activity” (Centre National de la Recherche Scientifique (C.N.R.S.), priority 2005, dated 2011).
Peptide text beside a SMILES is read from it. * marks the point of attachment. Boc = CC(C)(C)OC(=O)*; NHBn = c1ccc(CN*)cc1; Bn = c1ccc(C*)cc1

Key:
Type in all cases: biochemical
[1] = molecular target: T1, rabbit 20S proteasome, chymotrypsin-like (CT-L) activity (Oryctolagus cuniculus, UniProt G1T4Q9); test: Rabbit 20S proteasome fluorescent assay, chymotrypsin-like activity (Suc-LLVY-amc); conditions: pH 7.5, 30° C.; for inhibition at 100 µM: 100 μM compound
T1 construct: other: 100 μM compound, pH 7.5, 30° C; other: pH 7.5, 30° C; CT-L Ki
T1 sequence (G1T4Q9 1-263): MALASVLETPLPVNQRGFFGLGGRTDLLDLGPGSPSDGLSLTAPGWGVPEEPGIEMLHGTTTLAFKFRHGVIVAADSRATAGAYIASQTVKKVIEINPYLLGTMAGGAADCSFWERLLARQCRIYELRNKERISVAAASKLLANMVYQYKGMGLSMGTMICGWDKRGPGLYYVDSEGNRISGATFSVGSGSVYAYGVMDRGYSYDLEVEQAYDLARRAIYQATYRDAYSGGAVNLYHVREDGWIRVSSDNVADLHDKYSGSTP
Protocol: (§1) 20S proteasome from rabbit reticulocyte was from commercial source (Alexis Biochemicals)
(§2) Semi-automatic fluorescent assays using Suc-LLVY-amc (SEQ ID NO: 2) for chymotrypsin-like activity, Z-LLE-SNA for post-acid activity and Boc-LLR-amc for trypsin-like activity of proteasome were performed at pH 7.5 and 30° C. using BMG Fluostar microplate reader (Suc=succinyl; amc=7-amino-4-methylcoumarin; Z=benzyloxycarbonyl; NA=2-naphtylamine; Boc=tert-butoxycarbonyl). The buffers were: 20 mM Tris, 1 mM DTT, 10% glycerol, 3% (v/v) DMSO (ChT-L and PA activities); 20 mM Tris, 1 mM DTT, 10% glycerol, 3% (v/v) DMSO. Studied compounds were dissolved in DMSO prior dissolution in the buffer. Proteasome was incubated for 15 min at 30° C. in the presence of the studied compound (0.1-100 μM). A control assay in the absence of tested compounds contained DMSO at the same concentration (3%, v/v). The fluorogenic proteasome substrate was then added and the hydrolysis of the appropriate fluorescent substrate was monitored for 1 h (λexc=360, λem=465 nm for amc substrates and λexc=340, λem=405 nm for the βNA substrate). Initial rates determined in control experiments were considered to be 100% of the peptidasic activity; initial rates that were above 100% in the presence of a test compound were considered to be activations, while initial rates below 100% were considered to be inhibitions. For weak inhibitors, the percentage of inhibition at a reference concentration (100 μM) is reported. The results, expressed in % inhibition (or activation factor), were obtained by calculating the average of at least two independent experiments, the variability was less than 10%. The inhibitory activity of more efficient compounds are expressed as IC50 calculated by fitting the experimental data to the equation 1: % Inhibition=100 [I]0/(IC50+[I]0)=100 (v0−vi/v0), or equation 2: % Inhibition=100 [I]0^nH/(IC50^nH+[I]0^nH), nH is the Hill number. v0 and vi are the initial rates in the absence and in the presence of inhibitor. A Dixon plot has been used to determine the inhibition constant Ki for competitive inhibition by compound A215. The reversible character of inhibition or activation was determined by measuring the activity of treated enzyme after the inhibitor molecule has been withdrawn from the reaction medium.
(§3) Inhibition of Rabbit 20 S Proteasome (pH=7.5, 30° C.)
(§4) Activation of Rabbit 20 S Proteasome (pH=7.5, 30° C., [Compound]=100 μM)

[2] = molecular target: T2, rabbit 20S proteasome, post-acid (PA) activity (Oryctolagus cuniculus, UniProt A0A5F9DQW2); test: Rabbit 20S proteasome fluorescent assay, post-acid activity (Z-LLE-βNA); conditions: pH 7.5, 30° C.; for PA % inhibition (at 100 μM): 100 μM compound
T2 construct: other: 100 μM compound, pH 7.5, 30° C; other: pH 7.5, 30° C
Protocol: as §1, §2, §3, §4

[3] = system: rabbit 20S proteasome, trypsin-like (T-L) activity; test: Rabbit 20S proteasome fluorescent assay, trypsin-like activity (Boc-LLR-amc); conditions: [Compound]=100 μM, pH 7.5, 30° C.
Protocol: as §1, §2, §3, §4

T2 sequence (A0A5F9DQW2 1-212): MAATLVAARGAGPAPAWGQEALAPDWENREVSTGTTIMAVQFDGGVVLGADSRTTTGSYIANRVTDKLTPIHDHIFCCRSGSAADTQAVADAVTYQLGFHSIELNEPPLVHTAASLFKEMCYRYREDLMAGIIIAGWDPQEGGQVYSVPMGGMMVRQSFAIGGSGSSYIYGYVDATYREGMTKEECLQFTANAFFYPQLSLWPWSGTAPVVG

SMILES	inhibition at 100 µM [1] [%]	PA % inhibition (at 100 μM) [2] [%]	IC50 [1] [µM]	IC50 [2] [µM]	T-L Activation factor [3]
COC(=O)[C@H](Cc1c[nH]c2c(Br)cccc12)NC(=O)CCNC(=O)C(Cc1ccc(OC)c(I)c1)NC(=O)OC(C)(C)C (some centres unmarked) [A493, N-Boc-3-iodo-Tyr(Me)-βAla-7-bromo-Trp-OMe]	29	40	–	–	8.2
CC(C)(C)OC(=O)N[C@@H](Cc1ccc(OCc2ccccc2)cc1)C(=O)NCC(=O)N[C@@H](Cc1c[nH]c2ccccc12)C(=O)O [NR35, N-Boc-Tyr(Bn)-Gly-Trp-OH] (Boc-Tyr(Bn)-Gly-Trp-OH)	–	–	–	–	1.8
CC(C)(C)OC(=O)N[C@@H](Cc1ccc(OCc2ccccc2)cc1)C(=O)N[C@@H](CC(N)=O)C(=O)N[C@@H](Cc1c[nH]c2ccccc12)C(=O)Nc1ccc(O)cc1 [SP318C, N-Boc-Tyr(Bn)-Asn-Trp-NH(4-OH)Ph]	15	66	–	–	1.2
CNC(=O)[C@H](Cc1c[nH]c2c(Br)cccc12)NC(=O)[C@H](C)NC(=O)[C@H](Cc1ccc(OCc2ccccc2)c(I)c1)NC(=O)OC(C)(C)C [A254, N-Boc-3-iodo-Tyr(Bn)-Ala-7-bromo-Trp-NHMe]	38	60	–	–	–
CC(C)(C)OC(=O)N[C@@H](Cc1ccc(OCc2ccccc2)cc1)C(=O)N[C@@H](CC(N)=O)C(=O)N[C@@H](Cc1c[nH]c2ccccc12)C(=O)NCc1ccccc1 [A416, N-Boc-Tyr(Bn)-Asn-Trp-NHCH2Ph] (Boc-Tyr(Bn)-Asn-Trp-NHBn)	28	35	–	–	2.2
C[C@H](NC(=O)[C@H](Cc1ccc(OCc2ccccc2)cc1)NC(=O)OC(C)(C)C)C(=O)N[C@@H](CC1C(=O)Nc2ccccc21)C(=O)Nc1ccccc1 (some centres unmarked) [CV13, Boc-Tyr(Bn)-Ala-Trp[O]—NHPh]	32	–	–	3.9	–
CC(C)C[C@H](NC(=O)[C@H](Cc1ccc(OCc2ccccc2)cc1)NC(=O)OC(C)(C)C)C(=O)N[C@@H](Cc1c[nH]c2ccccc12)C(=O)Nc1ccc(O)cc1 [A418P, N-Boc-Tyr(Bn)-Leu-Trp-NH(4-OH)Ph]	–	32	–	–	1.6
CC(C)C[C@H](NC(=O)[C@H](Cc1ccc(OCc2ccccc2)cc1)NC(=O)OC(C)(C)C)C(=O)N[C@@H](Cc1c[nH]c2ccccc12)C(=O)NCCCCNC(=O)OC(C)(C)C [SP296P, N-Boc-Tyr(Bn)-Leu-Trp-NH(CH2)4NHBoc]	22	59	–	–	2.3
CC(C)(C)OC(=O)N[C@@H](Cc1ccc(OCc2ccccc2)cc1)C(=O)N[C@@H](CCCN(C(=N)NC(=O)OCc1ccccc1)C(=O)OCc1ccccc1)C(=O)N[C@@H](CC1C(=O)Nc2ccccc21)C(=O)Nc1ccccc1 (some centres unmarked) [CV11, Boc-Tyr(Bn)-Arg(Z)-2-Trp[O]—NHPh]	–	–	–	–	1.7
COC(=O)[C@H](Cc1c[nH]c2c(Br)cccc12)NC(=O)[C@H](CC(C)C)NC(=O)[C@H](Cc1ccc(OCc2ccccc2)c(I)c1)NC(=O)OC(C)(C)C [A268, N-Boc-3-iodo-Tyr(Bn)-Leu-7-bromo-Trp-OMe]	–	–	–	–	2
CCOC(=O)[C@H](Cc1c[nH]c2c(-c3cc(C[C@H](NC(=O)OC(C)(C)C)C(=O)N[C@@H](CC(C)C)C(=O)OC)ccc3OCc3ccccc3)cccc12)NC(=O)OCc1ccccc1 [SP221]	–	–	–	–	1.4
COC(=O)[C@H](Cc1c[nH]c2c(Br)cccc12)NC(=O)[C@H](C)NC(=O)[C@H](Cc1ccc(OCc2ccccc2)c(I)c1)NC(=O)OC(C)(C)C [A248, N-Boc-3-iodo-Tyr(Bn)-Ala-7-bromo-Trp-OMe]	–	32	–	–	–
C[C@H](NC(=O)[C@H](Cc1ccc(OCc2ccccc2)cc1)NC(=O)OC(C)(C)C)C(=O)N[C@@H](Cc1c[nH]c2ccccc12)C(=O)Nc1ccc(O)cc1 [SP313P, N-Boc-Tyr(Bn)-Ala-Trp-NH(4-OH)Ph]	26	–	–	4	–
CCOC(=O)[C@H](Cc1c[nH]c2c(Br)cccc12)NC(=O)[C@H](CC(C)C)NC(=O)[C@H](Cc1ccc(OC)c(I)c1)NC(=O)OC(C)(C)C [A340, N-Boc-3-iodo-Tyr(Me)-Leu-7-bromo-Trp-OEt]	–	17	–	–	–
COC(=O)[C@H](Cc1c[nH]c2c(Br)cccc12)NC(=O)[C@H](C)NC(=O)[C@H](Cc1ccc(OC)c(I)c1)NC(=O)OC(C)(C)C [A385, N-Boc-3-iodo-Tyr(Me)-Ala-7-bromo-Trp-OMe]	28	38	–	–	–
C[C@H](NC(=O)[C@H](Cc1ccc(OCc2ccccc2)cc1)NC(=O)OC(C)(C)C)C(=O)N[C@@H](Cc1c[nH]c2ccccc12)C(=O)NCc1ccccc1 [SP304R, N-Boc-Tyr(Bn)-Ala-Trp-NHCCH2Ph] (Boc-Tyr(Bn)-Ala-Trp-NHBn)	–	45	–	–	1.7
CC(C)C[C@H](NC(=O)[C@H](Cc1ccc(OCc2ccccc2)cc1)NC(=O)OC(C)(C)C)C(=O)N[C@@H](CC1C(=O)Nc2ccccc21)C(=O)Nc1ccccc1 (some centres unmarked) [JV602, Boc-Tyr(Bn)-Leu-Trp[O]—NHPh]	22	26	–	–	1.3
COC(=O)[C@H](Cc1c[nH]c2c(Br)cccc12)NC(=O)[C@H](CC(C)C)NC(=O)[C@H](Cc1ccc(OC)c(I)c1)NC(=O)OC(C)(C)C [A363, N-Boc-3-iodo-Tyr(Me)-Leu-7-bromo-Trp-OMe]	–	20	–	–	1.9

Now from value to molecule, other results behind:

inhibition at 100 µM [1] [%]	PA % inhibition (at 100 μM) [2] [%]	IC50 [1] [µM]	IC50 [2] [µM]	SMILES	T-L Activation factor [3]
62	45	–	–	COC(=O)[C@H](Cc1c[nH]c2c(Br)cccc12)NC(=O)[C@H](CC(N)=O)NC(=O)[C@H](Cc1ccc(OCc2ccccc2)c(I)c1)NC(=O)OC(C)(C)C [SP274, N-Boc-3-iodo-Tyr(Bn)-Asn-7-bromo-Trp-OMe]	–
–	81	13.5	–	COC(=O)[C@H](CC1C(=O)Nc2ccccc21)NC(=O)CNC(=O)[C@H](Cc1ccc(OCc2ccccc2)cc1)NC(=O)OC(C)(C)C (some centres unmarked) [NR38, Boc-Tyr(Bn)-Gly-Trp[O]—OCH3]	9.8
–	–	–	10.4	CC(C)(C)OC(=O)NCCC[C@H](NC(=O)[C@H](Cc1ccc(OCc2ccccc2)cc1)NC(=O)OC(C)(C)C)C(=O)N[C@@H](CC1C(=O)Nc2ccccc21)C(=O)Nc1ccccc1 (some centres unmarked) [CV12, Boc-Tyr(Bn)-Lys(Boc)-Trp[O]—NHPh]	1.5
–	–	40	35	COC(=O)[C@H](Cc1c[nH]c2ccccc12)NC(=O)[C@H](C)NC(=O)[C@H](Cc1ccc(O)cc1)NC(=O)OC(C)(C)C [NR40, N-Boc-Tyr-Ala-Trp-OCH3] (Boc-Tyr-Ala-Trp-OMe)	6
12	–	–	–	CC(C)(C)OC(=O)N[C@@H](Cc1ccc(OCc2ccccc2)cc1)C(=O)N[C@@H](CCCN(C(=N)NC(=O)OCc1ccccc1)C(=O)OCc1ccccc1)C(=O)N[C@@H](CC1C(=O)Nc2ccccc21)C(=O)NCc1ccccc1 (some centres unmarked) [NR16, Boc-Tyr(Bn)-Arg(Z)-2-Trp[O]—NHCH2Ph]	8.2
34	39	–	–	COC(=O)[C@H](Cc1c[nH]c2ccccc12)NC(=O)[C@H](C)NC(=O)[C@H](Cc1ccc(OCc2ccccc2)cc1)NC(=O)OC(C)(C)C [NR36, N-Boc-Tyr(Bn)-Ala-Trp-OCH3] (Boc-Tyr(Bn)-Ala-Trp-OMe)	9.8
–	87	2.2	–	CC(C)(C)OC(=O)N[C@@H](Cc1ccc(OCc2ccccc2)cc1)C(=O)NCC(=O)N[C@@H](CC1C(=O)Nc2ccccc21)C(=O)NCc1ccccc1 (some centres unmarked) [NR15, Boc-Tyr(Bn)-Gly-Trp[O]—NHCH2Ph]	12.3
